Measured values reported in PubChem BioAssay (NCI).
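96-well plates; 48 h exposure; 5 concentrations. Endpoints by linear interpolation between flanking doses. Not reached: highest tested concentration assigned. The concentration for 50% growth inhibition is given as GI50. TGI denotes the concentration required for complete inhibition of growth.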

Tests used:
Assay in all cases: NCI-60 cell line screen, 48 h
OVCAR-4 ovarian = tested on: OVCAR-4 ovarian
NCI-H226 lung = tested on: NCI-H226 lung
U251 CNS = tested on: U251 CNS
SW-620 colon = tested on: SW-620 colon
HCT-15 colon = tested on: HCT-15 colon
IGROV1 ovarian = tested on: IGROV1 ovarian
SR leukemia = tested on: SR leukemia
HOP-62 NSCLC = tested on: HOP-62 NSCLC
SNB-75 CNS = tested on: SNB-75 CNS
NCI-H23 lung = tested on: NCI-H23 lung

| SMILES | GI50 (OVCAR-4 ovarian) | TGI (OVCAR-4 ovarian) | GI50 (NCI-H226 lung) | TGI (U251 CNS) | TGI (SW-620 colon) | TGI (HCT-15 colon) | TGI (NCI-H226 lung) | TGI (IGROV1 ovarian) | TGI (SR leukemia) | TGI (HOP-62 NSCLC) | TGI (SNB-75 CNS) | TGI (NCI-H23 lung) | GI50 (U251 CNS) | GI50 (SW-620 colon) | GI50 (IGROV1 ovarian) | GI50 (SR leukemia) | GI50 (HCT-15 colon) | GI50 (HOP-62 NSCLC) | GI50 (NCI-H23 lung) | GI50 (SNB-75 CNS) |
| --- | --- | --- | --- | --- | --- | --- | --- | --- | --- | --- | --- | --- | --- | --- | --- | --- | --- | --- | --- | --- |
| CCCCCCCCCC(=O)N[C@H]1CCc2cc(OC)c(OC)c(OC)c2-c2ccc(SC)c(=O)cc21 | 10.8 µM | > 100 µM | 0.619 µM | 0.0618 µM | > 100 µM | 0.0901 µM |  |  |  |  |  |  |  |  |  |  |  |  |  |  |
| O=c1c2cccnc2ncn1CCCN1CCOCC1 |  | > 100 µM |  | > 100 µM | > 100 µM |  | > 100 µM | > 100 µM | > 100 µM | > 100 µM | > 100 µM | > 100 µM |  |  |  |  |  |  |  |  |
| CCOC(=O)C1(C(=O)OCC)CC=C(C)CC12C(=O)Nc1ccccc12 (stereo not drawn) |  | > 100 µM |  | > 100 µM | > 100 µM | > 100 µM | > 100 µM | > 100 µM |  | > 100 µM | > 100 µM | > 100 µM |  |  |  |  |  |  |  |  |
| Clc1ccc(Nc2nc3ccccc3c3occc23)cc1 | 8.7 µM | 19.8 µM |  | 16.2 µM | 14.8 µM | 34.4 µM |  | 27.3 µM | > 50 µM | 17.3 µM |  | 14.9 µM | 8.66 µM | 8.04 µM | 10.2 µM | 23.2 µM | 11.2 µM | 9.19 µM | 8.02 µM |  |
| CC(C)(C)C(=O)OCC(COC(=O)C(C)(C)C)[N+](=O)[O-] |  | > 100 µM |  | > 100 µM | > 100 µM | > 100 µM | > 100 µM | > 100 µM | > 100 µM |  | > 100 µM | > 100 µM |  |  |  |  |  |  |  |  |
| O=C1CCC(=O)C12CCc1cccc(O)c12 |  | > 100 µM |  | > 100 µM | > 100 µM | > 100 µM |  | > 100 µM |  | > 100 µM | > 100 µM | > 100 µM |  |  |  |  |  |  |  |  |
| COc1ccc(-c2nn(-c3cccc(NC(=O)Nc4cccc(C(F)(F)F)c4)c3)cc2-c2ccncc2)cc1Cl |  |  | 2.14 µM | 3.98 µM | > 100 µM | > 100 µM | 9.43 µM | > 100 µM | 4.84 µM | 10.9 µM | 8.37 µM | > 100 µM | 1.06 µM | 3.37 µM | 3.73 µM | 1.31 µM | 1.81 µM | 2.81 µM | 3.02 µM | 1.51 µM |
| COC1(OC)c2ccccc2C2(O)c3ccccc3C(=O)C12 (stereo not drawn) |  |  |  | > 100 µM | > 100 µM | > 100 µM | > 100 µM | 67 µM | > 100 µM |  | > 100 µM | > 100 µM |  |  |  |  |  |  |  |  |
| Cn1cnc([N+](=O)[O-])c1Sc1nnc(C(F)(F)F)n1C |  | 62.6 µM |  | 37.2 µM | 43.3 µM |  | > 100 µM | > 100 µM | 45 µM | > 100 µM | > 100 µM | > 100 µM |  |  |  |  |  |  |  |  |
| COc1ccc(/C=C/C(C(=O)O)C(=O)O)cc1 |  | > 100 µM |  | > 100 µM | > 100 µM | > 100 µM | > 100 µM | > 100 µM | > 100 µM | > 100 µM |  | > 100 µM |  |  |  |  |  |  |  |  |
| CCc1cccc(C(C)CC)c1NC(=O)CC1C(=O)Nc2ccccc2S1=O (stereo not drawn) |  | 47.9 µM |  | 48.5 µM | > 100 µM | > 100 µM | > 100 µM | 78.6 µM | 73.6 µM |  | 49.4 µM | > 100 µM |  |  |  |  |  |  |  |  |
| Nc1nc(Nc2ccc3c(c2)CCC(N2CCCC2)CC3)nn1-c1cc2c(nn1)-c1ccccc1CCC2 (stereo not drawn) | 1.15 µM | 2.56 µM |  | 2.39 µM | 3.17 µM | 2.14 µM |  | 1.81 µM | 2.37 µM | 3.11 µM | 2.18 µM | 3.72 µM | 1.09 µM | 1.31 µM | 0.455 µM | 0.42 µM | 0.839 µM | 1.5 µM | 1.71 µM | 0.792 µM |
| CN(C)CCNC(=O)c1cccc2c1nc(-c1ccccn1)c1ccccc12 |  | 42.2 µM |  | 34.5 µM | 27.3 µM | 30.6 µM |  | 66.6 µM |  | 36.2 µM | 47.1 µM | 30 µM |  |  |  |  |  |  |  |  |
| Nc1c(O)c(S(=O)(=O)O)c(O)c2c1C(=O)c1ccccc1C2=O | 3.06 µM | 20.8 µM | 4.12 µM | 11.1 µM | > 100 µM | 11.2 µM | > 100 µM | > 100 µM | 7.17 µM | > 100 µM |  | 9.88 µM | 3.09 µM | 3.24 µM | 3.29 µM | 2.03 µM | 2.64 µM | 2.92 µM | 2.82 µM |  |
| COP1(=S)OCC2CCC[C@@H]2O1 (stereo partly drawn) |  | > 100 µM |  | > 100 µM | > 100 µM | > 100 µM | > 100 µM | > 100 µM | > 100 µM |  | > 100 µM | > 100 µM |  |  |  |  |  |  |  |  |
| N#Cc1ccc2oc3ccc(C#N)cc3c(=O)c2c1 |  | 38.3 µM |  | 31.7 µM | > 100 µM | > 100 µM | 77.5 µM | > 100 µM | > 100 µM |  | 58.6 µM | 51.1 µM |  |  |  |  |  |  |  |  |
| CC1(CO)C(=O)OC12CCCCC2 (stereo not drawn) |  | > 100 µM |  |  | > 100 µM |  | > 100 µM | > 100 µM | > 100 µM | > 100 µM | > 100 µM | > 100 µM |  |  |  |  |  |  |  |  |
| COc1ccc(CCC2NCCc3cc(OC)c(OC)cc32)cc1 (stereo not drawn) |  | > 100 µM |  | > 100 µM | > 100 µM | > 100 µM |  |  |  | > 100 µM | > 100 µM | > 100 µM |  |  |  |  |  |  |  |  |
| COc1cc(/C=C/C(=O)c2cc(OC)c(OC)c(OC)c2)cc(OC)c1OC | 3.63 µM | 57.8 µM | 6.36 µM | 16.6 µM | 5.67 µM | 62.9 µM | 87.4 µM |  | 8.41 µM | 18.2 µM | 9.41 µM | 13.7 µM | 3.21 µM | 2.18 µM |  | 1.46 µM | 3.41 µM | 4.07 µM | 3.15 µM | 2.31 µM |
| CC(=O)OC1=C2C(CC3C4CC=C5CC(OC(C)=O)CCC5(C)C4CCC23C)C2C(=O)N(Cc3ccccc3)C(=O)C2C1 (stereo not drawn) | 2.33 µM | 9.27 µM | 8.16 µM |  | > 100 µM | > 100 µM | > 100 µM | > 100 µM | 16.6 µM | > 100 µM | 86.5 µM | 74 µM |  | 12.2 µM | 6.85 µM | 3.62 µM | 3.09 µM | 35.9 µM | 16.6 µM | 5.54 µM |
